Source: patent publication US20220370453A1 (Storm Therapeutics Ltd, priority 2019, published 2022)

Experiments:
BCDIN3D [1] = molecular target: T1, BCDIN3D (Homo sapiens, UniProt Q7Z5W3); assay: BCDIN3D InCellPulse thermal stability assay in transfected A549 cells; type: cell-based; conditions: heat shock 58° C. 15 min
T1 sequence (Q7Z5W3 1-292): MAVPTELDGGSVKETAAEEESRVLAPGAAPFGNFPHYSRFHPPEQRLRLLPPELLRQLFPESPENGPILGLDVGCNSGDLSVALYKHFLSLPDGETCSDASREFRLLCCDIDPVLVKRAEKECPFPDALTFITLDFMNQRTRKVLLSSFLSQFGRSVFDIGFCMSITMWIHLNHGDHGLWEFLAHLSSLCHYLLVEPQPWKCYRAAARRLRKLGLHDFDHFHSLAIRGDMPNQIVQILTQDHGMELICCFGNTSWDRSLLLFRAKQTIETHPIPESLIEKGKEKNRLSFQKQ
Outline: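 A549 cells transiently expressing BCDIN3D N-terminally fused to ePL ProLabel tag, 1500 cells/well, pre-incubated 1 h at 37 °C with compound (0.6% DMSO). Heat shock 58 °C for 15 min; remaining soluble fusion detected by split β-galactosidase complementation luminescence.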

BCDIN3D [2] = molecular target: T1, BCDIN3D; assay: BCDIN3D IC50 RFMS (RapidFire) assay with mini-helix; type: biochemical; conditions: 25 nM enzyme
Outline: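 25 nM enzyme preincubated 10 min at room temperature with compound (1% DMSO) in 25 mM Tris pH 8.0, 10 mM DTT, 1 mM EDTA, 0.03% BSA. Reaction started with 0.2 μM mini-helix plus 6 μM SAM, run 1 h at 37 °C, quenched with TCA; SAH product quantified by RapidFire MS against isotopic SAH standards.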

[3] = transiently transfected A549 cells
[4] = mini-helix substrate 0.2 μM, SAM 6 μM
[5] = A549 cells transiently transfected with ePL-BCDIN3D, 1 h pre-incubation
[6] = mini-helix 0.2 μM and SAM 6 μM as substrates, 1 hr at 37° C.

| Structure (SMILES) | IC50 (BCDIN3D [1]; [3]) [nM] | IC50 (BCDIN3D [2]; [4]) [nM] | IC50 (BCDIN3D [1]; [5]) [nM] | IC50 (BCDIN3D [2]; [6]) [nM] |
| --- | --- | --- | --- | --- |
| Cn1ncc2c(NC(C)(C)C)nc(NCC(N)c3cccc(Br)c3)nc21 (stereo not shown) [Compound 5.18, N6-[2-amino-2-(3-bromophenyl)ethyl]-N4-tert-butyl-1-methyl-pyrazolo[3,4-d]pyrimidine-4,6-diamine] | 27.8 | 47 | – | – |
| CC(C)Nc1nc(NCC(N)c2ccc(Br)cc2)nc2c1cnn2C (stereo not shown) [Compound 5.19, 6-N-[2-amino-2-(4-bromophenyl)ethyl]-1-methyl-4-N-propan-2-ylpyrazolo[3,4-d]pyrimidine-4,6-diamine] | 767 | 375 | – | – |
| Cn1ncc2c(NC(C)(C)C)nc(NCC(N)c3ccccc3Br)nc21 (stereo not shown) [Compound 5.20, N6-[2-amino-2-(2-bromophenyl)ethyl]-N4-tert-butyl-1-methyl-pyrazolo[3,4-d]pyrimidine-4,6-diamine] | 1120 | 609 | – | – |
| CNc1nc(NCC(N)c2ccc(C#N)cc2)nc2c1cnn2C (stereo not shown) [Compound 5.21, 4-[1-amino-2-[[1-methyl-4-(methylamino)pyrazolo[3,4-d]pyrimidin-6-yl]amino]ethyl]benzonitrile] | 11100 | 3860 | – | – |
| Cn1ncc2c(NC(C)(C)C)nc(NCC(N)c3cccc(C#N)c3)nc21 (stereo not shown) [Compound 5.22, 3-[1-amino-2-[[4-(tert-butylamino)-1-methyl-pyrazolo[3,4-d]pyrimidin-6-yl]amino]ethyl]benzonitrile] | 129 | 42.8 | – | – |
| Cn1ncc2c(NC(C)(C)C(F)(F)F)nc(NC[C@H](N)c3cccc(C#N)c3)nc21 [Compound 5.23, 3-[(1R)-1-amino-2-[[1-methyl-4-[(2,2,2-trifluoro-1,1-dimethyl-ethyl)amino]pyrazolo[3,4-d]pyrimidin-6-yl]amino]ethyl]benzonitrile] | 124 | 61.7 | – | – |
| Cn1ncc2c(NC3CC(F)(F)C3)nc(NCC(N)c3cccnc3)nc21 (stereo not shown) [Compound 5.25, N6-[2-amino-2-(3-pyridyl)ethyl]-N4-(3,3-difluorocyclobutyl)-1-methyl-pyrazolo[3,4-d]pyrimidine-4,6-diamine] | 5580 | 1810 | – | – |
| Cn1ncc2c(NC(C)(C)C)nc(NCC(N)c3ccncc3)nc21 (stereo not shown) [Compound 5.26, N6-[2-amino-2-(4-pyridyl)ethyl]-N4-tert-butyl-1-methyl-pyrazolo[3,4-d]pyrimidine-4,6-diamine] | 5570 | 3390 | – | – |
| Cn1ncc2c(NC3CC(F)(F)C3)nc(NCC(N)c3ccncc3)nc21 (stereo not shown) [Compound 5.27, N6-[2-amino-2-(4-pyridyl)ethyl]-N4-(3,3-difluorocyclobutyl)-1-methyl-pyrazolo[3,4-d]pyrimidine-4,6-diamine] | 10000 | 2810 | – | – |
| Cn1ncc2c(NC(C)(C)C)nc(NC[C@H](N)c3ccc(C#N)cc3)nc21 [Compound 5.28, 4-[(1R)-1-amino-2-{[4-(tert-butylamino)-1-methyl-1H-pyrazolo[3,4-d]pyrimidin-6-yl]amino}ethyl]benzonitrile] | 370 | 90 | – | – |
| CN[C@@H](CNc1nc(NC(C)(C)C)c2cnn(C)c2n1)c1ccccc1 [Compound 5.29, N4-tert-butyl-1-methyl-N6-[(2R)-2-(methylamino)-2-phenylethyl]-1H-pyrazolo[3,4-d]pyrimidine-4,6-diamine] | 1690 | 2780 | – | – |
| Cn1ncc2c(NC(C)(C)C)nc(NCC(N)c3cccc(C4CC4)c3)nc21 (stereo not shown) [Compound 5.32, N6-[2-amino-2-(3-cyclopropylphenyl)ethyl]-N4-tert-butyl-1-methyl-1H-pyrazolo[3,4-d]pyrimidine-4,6-diamine] | 120 | 70 | – | – |
| Cn1ncc2c(NC(C)(C)C)nc(NCC(N)c3ccc(C4CC4)cc3)nc21 (stereo not shown) [Compound 5.33, N6-[2-amino-2-(4-cyclopropylphenyl)ethyl]-N4-tert-butyl-1-methyl-1H-pyrazolo[3,4-d]pyrimidine-4,6-diamine] | 150 | 130 | – | – |
| CCOc1nc(NCC(N)c2ccccc2)nc2c1cnn2C (stereo not shown) [Compound 6.01, N′-(4-Ethoxy-1-methylpyrazolo[3,4-d]pyrimidin-6-yl)-1-phenylethane-1,2-diamine] | – | – | 6610 | 2510 |
| CC(C)Oc1nc(NCC(N)c2ccccc2)nc2c1cnn2C (stereo not shown) [Compound 6.04, N′-(1-methyl-4-propan-2-yloxypyrazolo[3,4-d]pyrimidin-6-yl)-1-phenylethane-1,2-diamine] | – | – | 4150 | 2620 |
| Cn1ncc2c(OC(C)(C)C)nc(NCC(N)c3ccccc3)nc21 (stereo not shown) [Compound 6.05, N′-(4-tert-butoxy-1-methyl-pyrazolo[3,4-d]pyrimidin-6-yl)-1-phenyl-ethane-1,2-diamine] | – | – | 5140 | 4160 |
| Cc1ccc(CNc2nc(NC[C@@H](N)CF)nc3c2cnn3C)cc1Cl [Compound 7.14, 6-N-[(2R)-2-amino-3-fluoropropyl]-4-N-[(3-chloro-4-methylphenyl)methyl]-1-methylpyrazolo[3,4-d]pyrimidine-4,6-diamine] | – | – | 6320 | 5650 |

The next lines start with the values.

| IC50 (BCDIN3D [1]; [3]) [nM] | IC50 (BCDIN3D [2]; [4]) [nM] | IC50 (BCDIN3D [1]; [5]) [nM] | IC50 (BCDIN3D [2]; [6]) [nM] | Structure (SMILES) |
| --- | --- | --- | --- | --- |
| – | – | 899 | 998 | Cc1ccc(CNc2nc(N[C@H]3CCCC[C@H]3N)nc3c2cnn3C)cc1Cl [Compound 7.02, 6-N-[(1S,2R)-2-aminocyclohexyl]-4-N-[(3-chloro-4-methylphenyl)methyl]-1-methylpyrazolo[3,4-d]pyrimidine-4,6-diamine] |
| – | – | 2970 | 3910 | Cn1ncc2c(NC3CC3)nc(NC[C@H](N)c3ccccc3)nc21 [Compound 7.04, N6-[(2R)-2-amino-2-phenyl-ethyl]-N4-cyclopropyl-1-methyl-pyrazolo[3,4-d]pyrimidine-4,6-diamine] |
| – | – | 169 | 241 | Cn1ncc2c(Nc3ccc(F)cc3)nc(NC[C@H](N)c3ccccc3)nc21 [Compound 7.05, N6-[(2R)-2-amino-2-phenyl-ethyl]-N4-(4-fluorophenyl)-1-methyl-pyrazolo[3,4-d]pyrimidine-4,6-diamine] |
| – | – | 2930 | 2190 | Cn1ncc2c(Nc3ccc(F)cc3)nc(NC[C@@H](N)c3ccccc3)nc21 [Compound 7.06, N6-[(2S)-2-amino-2-phenyl-ethyl]-N4-(4-fluorophenyl)-1-methyl-pyrazolo[3,4-d]pyrimidine-4,6-diamine] |
| – | – | 4120 | 5620 | Cn1ncc2c(NCC(F)(F)F)nc(NC[C@@H](N)c3ccccc3)nc21 [Compound 7.07, N6-[(2S)-2-amino-2-phenyl-ethyl]-1-methyl-N4-(2,2,2-trifluoroethyl)pyrazolo[3,4-d]pyrimidine-4,6-diamine] |
| – | – | 223 | 33.4 | Cn1ncc2c(Nc3ccc(C(F)(F)F)nc3)nc(NC[C@H](N)c3ccccc3)nc21 [Compound 7.08, N6-[(2R)-2-amino-2-phenyl-ethyl]-1-methyl-N4-[6-(trifluoromethyl)-3-pyridyl]pyrazolo[3,4-d]pyrimidine-4,6-diamine] |
| – | – | 414 | 209 | Cn1ncc2c(Nc3ccc(C(F)(F)F)nc3)nc(NC[C@@H](N)c3ccccc3)nc21 [Compound 7.09, N6-[(2S)-2-amino-2-phenyl-ethyl]-1-methyl-N4-[6-(trifluoromethyl)-3-pyridyl]pyrazolo[3,4-d]pyrimidine-4,6-diamine] |
| – | – | 4180 | 181 | Cn1ncc2c(NC(C)(C)C)nc(NC[C@@H](N)c3ccccc3F)nc21 [Compound 7.11, N6-[(2S)-2-amino-2-(2-fluorophenyl)ethyl]-N4-tert-butyl-1-methyl-pyrazolo[3,4-d]pyrimidine-4,6-diamine] |
| – | – | 410 | 330 | Cn1ncc2c(NC(C)(C)C)nc(NC[C@H](N)c3ccc(F)cc3)nc21 [Compound 7.18, N6-[(2R)-2-amino-2-(4-fluorophenyl)ethyl]-N4-tert-butyl-1-methyl-1H-pyrazolo[3,4-d]pyrimidine-4,6-diamine] |
